Where two headings read alike, the source gives them in different places.
Test system: male Std:ddY mice
Test: Phenyl-1,4-benzoquinone-induced writhing test
Assay type: in vivo
Settings: for inhibition in vivo at 10 mg/kg / ED50 / inhibition in vivo at 1 mg/kg: Mus musculus; for inhibition in vivo at 10 mg/kg / inhibition in vivo at 1 mg/kg: 1 h, read-out: Inhibitory percentage (%); for inhibition in vivo at 10 mg/kg / Inhibitory percentage (%): orally administered at a dose of 10 mg/kg; for inhibition in vivo at 10 mg/kg / Inhibitory percentage (%) / inhibition in vivo at 1 mg/kg: 60 minutes before PBQ; for ED50 / ED50 (mg/kg po) / Inhibitory percentage (%) / ED50 (mg/kg sc): writhing inhibition; for ED50 / ED50 (mg/kg po) / ED50 (mg/kg sc): logit analysis; for inhibition in vivo at 1 mg/kg: subcutaneously administered at a dose of 1 mg/kg
Description: Phenyl-1,4-benzoquinone-induced Writhing Test Referring to the method disclosed in Proc. Soc. exp. Biol. […] For oral administration, a test compound was suspended in 0.5% tragacanth solution. […] In the control group, a physiological saline solution containing 10% Tween 80 and 10% ethanol was administered in the case of subcutaneous administration, or a 0.5% tragacanth solution was administered in the case of oral administration. The number of writhing movements in the test compound-treated group was compared with that in the control group, and the writhing inhibitory percentage was calculated therefrom and considered as an analgesic effect. Writhing inhibitory percentage (%)=[(A−B)/A]×100 In the above equation, A means the number of writhing movements in the control group, and B means the number of writhing movements in the test compound-treated group. From the writhing inhibitory percentage of the test compound, ED50 (mg/kg) was calculated by logit analysis.

[1] = po, oral administration, read-out: ED50 (mg/kg po)
[2] = sc, subcutaneous administration, read-out: ED50 (mg/kg sc)

| SMILES | inhibition in vivo at 10 mg/kg (po) [%] | ED50 [1] [mg/kg] | inhibition in vivo at 1 mg/kg (sc) [%] | ED50 [2] [mg/kg] | also measured |
| --- | --- | --- | --- | --- | --- |
| COc1cc(CC(=O)Nc2cccc([C@H]3CC[C@@H](C(C)(C)C)CC3)c2)ccc1OCCN [Example 194, 4-(2-aminoethoxy)-N-[3-[(cis)-4-tert-butylcyclohexan-1-yl]-phenyl]-3-methoxyphenylacetamide] | 96.2 | 1.05 |  |  |  |
| COc1cc(CC(=O)Nc2ccc(OC(F)(F)F)c(-c3ccccc3)c2)ccc1OCCN [Example 179, 4-(2-aminoethoxy)-3-methoxy-N-[(3-phenyl-4-trifluoromethoxy)-phenyl]phenylacetamide] |  |  |  |  | ED50 (mg/kg po) (oral administration, listed as Ex. 179): 0.95 mg/kg; Inhibitory percentage (%): 100% |
| COc1cc(CC(=O)Nc2cccc(-c3ccccc3C(C)(C)C)c2)ccc1OCCN [Example 184, 4-(2-aminoethoxy)-N-[3-(2-tert-butylphenyl)phenyl]-3-methoxyphenylacetamide] | 100 | ≤ 1 |  |  | ED50 (mg/kg po) (oral administration, listed as Ex. 184): 0.60 mg/kg |
| COc1cc(CC(=O)Nc2cccc(-c3ccc(Cl)s3)c2)ccc1O [Example 100, 4-hydroxy-3-methoxy-N-[3-(2-chlorothiophen-5-yl)phenyl]-phenylacetamide] |  |  | 100 |  |  |
| COc1cc(CC(=O)Nc2cccc(-c3cc4ccccc4o3)c2)ccc1OCCN [Example 166, 4-(2-aminoethoxy)-N-[3-(benzofuran-2-yl)phenyl]-3-methoxyphenylacetamide] | 96 | 2.4 |  |  |  |
| COc1cc(CC(=O)Nc2cccc(C3CCCCC3c3ccccc3)c2)ccc1O (centres unmarked) [Example 11, 4-hydroxy-3-methoxy-N-[3-(2-phenylcyclohexan-1-yl)phenyl]-phenylacetamide] |  |  | 88.4 | 0.19 |  |
| COc1cc(CC(=O)Nc2cccc(-c3cccc(C4CCCCC4)c3)c2)ccc1OCCN [Example 183, 4-(2-aminoethoxy)-N-[3-(3-cyclohexylphenyl)phenyl]-3-methoxyphenylacetamide] | 83.5 | 3.09 |  |  |  |
| COc1cc(CC(=O)Nc2cccc(CC3CCCCC3)c2)ccc1O [Example 5, N-[3-(cyclohexylmethyl)phenyl]-4-hydroxy-3-methoxyphenylacetamide] |  |  | 83.5 | 0.57 |  |
| COc1cc(CC(=O)Nc2ccc(C)c(-c3ccccc3)c2)ccc1OCCN [Example 173, 4-(2-aminoethoxy)-3-methoxy-N-[(3-phenyl-4-methyl)phenyl]-phenylacetamide] |  |  |  |  | ED50 (mg/kg po) (oral administration, listed as Ex. 173): 0.87 mg/kg; Inhibitory percentage (%): 100% |
| COc1cc(CC(=O)Nc2cccc(-c3cccc(Cl)c3)c2)ccc1OCCN [Example 126, 4-(2-aminoethoxy)-N-[3-(3-chlorophenyl)phenyl]-3-methoxyphenylacetamide] | 89.9 | 2.19 |  |  |  |
| COc1cc(CC(=O)Nc2cccc(N3CCCC4(CCCCC4)C3)c2)ccc1OCCN [Example 201, 4-(2-aminoethoxy)-3-methoxy-N-[3-(2-azaspiro[5, 5]undecan-2-yl)phenyl]phenylacetamide] | 100 | 2.04 |  |  |  |
| COc1cc(CC(=O)Nc2cccc(N3CCCC(C4CCCCC4)C3)c2)ccc1O (centres unmarked) [Example 87, N-[3-(3-cyclohexylpiperidin-1-yl)phenyl]-4-hydroxy-3-methoxyphenylacetamide] |  |  | 95.8 | 0.4 |  |
| COc1cc(CC(=O)Nc2ccc3c(c2)C(=O)/C(=C/C(C)C)CC3)ccc1O [Ex. 250] |  |  | 55 |  |  |
| COc1cc(CC(=O)Nc2ccc3c(c2)C(=O)C(CC(C)C)CC3)ccc1O (centres unmarked) [Ex. 251, 4-hydroxy-3-methoxy-N-[1-oxo-2-(2-methylpropyl)-1,2,3,4-tetrahydronaphthalen-7-yl]phenylacetamide] |  |  | 42.7 |  |  |
| COc1cc(CC(=O)Nc2cccc(/C=C\c3ccccc3)c2)ccc1O [Example 56, 4-hydroxy-3-methoxy-N-[3-[(Z)-2-phenylvinyl]phenyl]phenylacetamide] |  |  | 82.7 | 0.11 |  |
| COc1cc(CC(=O)Nc2cccc(C3C(C)CCCC3C)c2)ccc1O (centres unmarked) [Example 84, N-[3-(2,6-dimethylcyclohexan-1-yl)phenyl]-4-hydroxy-3-methoxyphenylacetamide] |  |  | 67.7 | 0.45 |  |
| COc1cc(CC(=O)Nc2cccc(-c3ccccc3F)c2)ccc1OCCN [Example 123, 4-(2-aminoethoxy)-N-[3-(2-fluorophenyl)phenyl]-3-methoxyphenylacetamide] | 100 | ≤ 1 |  |  | ED50 (mg/kg po) (oral administration, listed as Ex. 123): 0.76 mg/kg |

| SMILES | inhibition in vivo at 10 mg/kg (po) [%] | ED50 [1] [mg/kg] | inhibition in vivo at 1 mg/kg (sc) [%] | ED50 [2] [mg/kg] | also measured |
| --- | --- | --- | --- | --- | --- |
| COc1cc(CC(=O)Nc2cccc(-c3cccc(OC(F)(F)F)c3)c2)ccc1OCCN [Example 150, 4-(2-aminoethoxy)-3-methoxy-N-[3-(3-trifluoromethoxyphenyl)-phenyl]phenylacetamide] | 100 | 1.32 |  |  |  |
| COc1cc(CC(=O)Nc2cccc([C@H]3CC[C@H](C(C)(C)C)CC3)c2)ccc1OCCN [Example 195, 4-(2-aminoethoxy)-N-[3-[(trans)-4-tert-butylcyclohexan-1-yl]-phenyl]-3-methoxyphenylacetamide] | 77.7 |  |  |  |  |
| COc1cc(CC(=O)Nc2cccc(N3CCCCC3)c2)ccc1OCCN [Example 197, 4-(2-aminoethoxy)-3-methoxy-N-[3-(piperidin-1-yl)phenyl]-phenylacetamide] | 89.1 | 5.26 |  |  |  |
| COc1cc(CC(=O)Nc2cccc(C3CCCC(C)C3)c2)ccc1O (centres unmarked) [Example 83, 4-hydroxy-3-methoxy-N-[3-(3-methylcyclohexan-1-yl)phenyl]-phenylacetamide] |  |  | 83 | ≤ 0.1 | ED50 (mg/kg sc) (subcutaneous administration, listed as Ex. 83): 0.10 mg/kg |
| COc1cc(CC(=O)Nc2cccc(-c3cccc(C(C)C)c3)c2)ccc1OCCN [Example 136, 4-(2-aminoethoxy)-N-[3-(3-isopropylphenyl)phenyl]-3-methoxyphenylacetamide] | 99 | 3.11 |  |  |  |
| COc1cc(CC(=O)Nc2cccc(-c3ccccc3C3CCCCC3)c2)ccc1OCCN [Example 122, 4-(2-aminoethoxy)-N-[3-(2-cyclohexylphenyl)phenyl]-3-methoxyphenylacetamide] | 99 | ≤ 1 |  |  | ED50 (mg/kg po) (oral administration, listed as Ex. 122): 0.58 mg/kg |
| COc1cc(CC(=O)Nc2ccc3ccn(Cc4ccccc4)c3c2)ccc1OCCN [Example 238, 4-(2-aminoethoxy)-3-methoxy-N-[1-benzylindol-6-yl]phenylacetamide] |  |  | 70.2 | 0.37 |  |
| COc1cc(CC(=O)Nc2cccc(C#Cc3ccccc3C(F)(F)F)c2)ccc1O [Ex. 37, 4-hydroxy-3-methoxy-N-[3-[2-(2-trifluoromethylphenyl)-ethynyl]phenyl]phenylacetamide] |  |  | 59.6 | 0.46 |  |
| COc1cc(CC(=O)Nc2cccc(C3=CCCCC3)c2)ccc1O [Example 9, N-[3-(cyclohexen-1-yl)phenyl]-4-hydroxy-3-methoxyphenylacetamide] |  |  | 93.2 | 0.23 |  |
| COc1cc(CC(=O)Nc2cccc(-c3ccccc3C)c2)ccc1OCCN [Example 131, 4-(2-aminoethoxy)-3-methoxy-N-[3-(2-methylphenyl)phenyl]-phenylacetamide] | 100 | 1.1 |  |  |  |
| COc1cc(CC(=O)Nc2cccc(C3CCC(C(C)(C)C)CC3)c2)ccc1OC(=O)c1ccccc1 (centres unmarked) [Example 70, 4-benzoyloxy-N-[3-(4-tert-butylcyclohexan-1-yl)phenyl]-3-methoxyphenylacetamide] | 68.6 | 9.7 | 93.2 | 0.16 |  |
| COc1cc(CC(=O)Nc2cccc(C3CCCCC3)c2)ccc1O [Example 1, N-(3-cyclohexylphenyl)-4-hydroxy-3-methoxyphenylacetamide] |  |  | 100 |  | ED50 (mg/kg sc) (subcutaneous administration, listed as Ex. 1): 0.014 mg/kg |
| COc1cc(CC(=O)Nc2cc(-c3ccccc3)ccc2F)ccc1OCCN [Example 170, 4-(2-aminoethoxy)-N-[(2-fluoro-5-phenyl)phenyl]-3-methoxyphenylacetamide] |  |  |  |  | ED50 (mg/kg po) (oral administration): 1.06 mg/kg; Inhibitory percentage (%): 87.9% |
| COc1cc(CC(=O)Nc2cccc(C3CCC(C)CC3)c2)ccc1O (centres unmarked) [Example 13, 4-hydroxy-3-methoxy-N-[3-(4-methylcyclohexan-1-yl)phenyl]-phenylacetamide] |  |  | 100 | ≤ 0.1 | ED50 (mg/kg sc) (subcutaneous administration, listed as Ex. 13): 0.097 mg/kg |
| COC(=O)c1cccc(-c2cccc(NC(=O)Cc3ccc(OCCN)c(OC)c3)c2)c1 [Example 146, 4-(2-aminoethoxy)-N-[3-(3-methoxycarbonylphenyl)phenyl]-3-methoxyphenylacetamide] | 76.9 | 2.68 |  |  |  |
| COc1cc(CC(=O)Nc2cccc(CCC3CCCCC3)c2)ccc1O [Example 114, 4-hydroxy-3-methoxy-N-[3-(2-cyclohexylethyl)phenyl]phenylacetamide] |  |  | 98 |  |  |

Source: patent publication US7084176B2, “N-arylphenylacetamide derivatives and medicinal compositions containing the same” (Dainippon Pharmaceutical Co., Ltd., priority 2001, dated 2006)
